Measurements reported in ChEMBL document CHEMBL4725294, “Centrally Active Multitarget Anti-Alzheimer Agents Derived from the Antioxidant Lead CR-6” (J Med Chem, 2020).
Activity calls are given as the source filed them. The calls are words filed in the database; no cut-off is given here.

Tests used:
[1] = Acute toxicity in C57BL6/J mouse at 5 to 10 mg/kg, ip measured up to 24 hrs; format: organism-based; conditions: in vivo, dose 5-10 mg/kg
[2] = Acute toxicity in C57BL6/J mouse assessed as piloerection at 15 mg/kg, ip measured after 5 mins; format: organism-based; conditions: in vivo
[3] = Acute toxicity in C57BL6/J mouse assessed as ptosis at 15 mg/kg, ip measured after 5 mins; format: organism-based; conditions: in vivo
[4] = Acute toxicity in C57BL6/J mouse assessed as tremor at 15 mg/kg, ip measured after 5 mins; format: organism-based; conditions: in vivo
[5] = Acute toxicity in C57BL6/J mouse at 15 mg/kg, ip measured after 3 hrs; format: organism-based; conditions: in vivo
[6] = system: Mus musculus; test: Improvement in memory impairment in APP/PS1 double mutant-transgenic C57BL6/J mouse model assessed as […] at 10 mg/kg/day, ip for 4 weeks followed by compound washout by maze two-object recognition test; format: functional, organism-based
[7] = system: Mus musculus; test: Antialzheimer activity in APP/PS1 double mutant-transgenic C57BL6/J mouse model assessed as reduction in soluble amyloid beta 40 level in cortex at 10 mg/kg/day, ip for 4 weeks followed by compound washout and measured after 24 hrs by ELISA; format: functional, organism-based
[8] = system: Mus musculus; test: Antialzheimer activity in APP/PS1 double mutant-transgenic C57BL6/J mouse model assessed as reduction in soluble amyloid beta 42 level in cortex at 10 mg/kg/day, ip for 4 weeks followed by compound washout and measured after 24 hrs by ELISA; format: functional, organism-based
[9] = system: Mus musculus; test: Antialzheimer activity in APP/PS1 double mutant-transgenic C57BL6/J mouse model assessed as reduction in Bace1 expression at 10 mg/kg/day, ip for 4 weeks followed by compound washout and measured after 24 hrs by Western blot analysis; format: functional, organism-based
[10] = system: Mus musculus; test: Antialzheimer activity in APP/PS1 double mutant-transgenic C57BL6/J mouse model assessed as reduction in oxidized protein level at 10 mg/kg/day, ip for 4 weeks followed by compound washout and measured after 24 hrs by Western blot analysis; format: functional, organism-based
[11] = system: Mus musculus; test: Antialzheimer activity in APP/PS1 double mutant-transgenic C57BL6/J mouse model assessed as effect on iNOS gene expression at 10 mg/kg/day, ip for 4 weeks followed by compound washout and measured after 24 hrs by qPCR analysis; format: functional, organism-based
[12] = system: Mus musculus; test: Antialzheimer activity in APP/PS1 double mutant-transgenic C57BL6/J mouse model assessed as increase in Hmox1 gene expression at 10 mg/kg/day, ip for 4 weeks followed by compound washout and measured after 24 hrs by qPCR analysis; format: functional, organism-based
[13] = Stability in human plasma assessed as parent compound remaining at 10 uM measured after 60 mins by UPLC-MS/MS analysis; format: ADME, cell-free; conditions: read-out: Stabilty
[14] = Stability in human plasma assessed as parent compound remaining at 10 uM measured after 180 mins by UPLC-MS/MS analysis; format: ADME, cell-free; conditions: read-out: Stabilty
[15] = Stability in human plasma assessed as parent compound remaining at 10 uM measured after 360 mins by UPLC-MS/MS analysis; format: ADME, cell-free; conditions: read-out: Stabilty
[16] = Stability in mouse plasma assessed as parent compound remaining at 10 uM measured immediately by UPLC-MS/MS analysis; format: ADME, cell-free; conditions: read-out: Stabilty
[17] = Stability in mouse plasma assessed as parent compound remaining at 10 uM measured after 180 mins by UPLC-MS/MS analysis; format: ADME, cell-free; conditions: read-out: Stabilty
[18] = Stability in mouse plasma assessed as parent compound remaining at 10 uM measured after 360 mins by UPLC-MS/MS analysis; format: ADME, cell-free; conditions: read-out: Stabilty
[19] = Stability in rat plasma assessed as parent compound remaining at 10 uM measured immediately by UPLC-MS/MS analysis; format: ADME, cell-free; conditions: read-out: Stabilty
[20] = Stability in rat plasma assessed as parent compound remaining at 10 uM measured after 180 mins by UPLC-MS/MS analysis; format: ADME, cell-free; conditions: read-out: Stabilty
[21] = Stability in rat plasma assessed as parent compound remaining at 10 uM measured after 360 mins by UPLC-MS/MS analysis; format: ADME, cell-free; conditions: read-out: Stabilty
[22] = Half life in human liver microsomes at 5 uM by UPLC-MS/MS analysis; format: ADME, Microsome
[23] = Intrinsic clearance in human liver microsomes assessed per mg protein at 5 uM by UPLC-MS/MS analysis; format: ADME, Microsome; conditions: read-out: CLH
[24] = Stability in mouse liver microsomes assessed as parent compound remaining at 5 uM measured up to 60 mins by UPLC-MS/MS analysis; format: ADME, Microsome; conditions: read-out: Stabilty
[25] = Intrinsic clearance in mouse liver microsomes assessed per mg protein at 5 uM by UPLC-MS/MS analysis; format: ADME, Microsome; conditions: read-out: CLH
[26] = Stability in rat liver microsomes assessed as parent compound remaining at 5 uM measured up to 60 mins by UPLC-MS/MS analysis; format: ADME, Microsome; conditions: read-out: Stabilty
[27] = Half life in rat liver microsomes at 5 uM by UPLC-MS/MS analysis; format: ADME, Microsome
[28] = Intrinsic clearance in rat liver microsomes assessed per mg protein at 5 uM by UPLC-MS/MS analysis; format: ADME, Microsome; conditions: read-out: CLH
[29] = Drug metabolism in human liver microsomes assessed as N-[8-[(6-chloro-1,2,3,4-tetrahydroacridin-9-yl)amino]octyl]-5-(2,5-dihydroxy-4-methoxy-phenyl)-3-hydroxy-3-methyl-pentanamide formation at 5 uM measured up to 60 mins by UPLC-MS/MS analysis; format: ADME, Microsome; conditions: 1 h
[30] = Drug metabolism in human liver microsomes assessed as 6-chloro-1,2,3,4-tetrahydroacridin-9-amine formation at 5 uM measured up to 60 mins by UPLC-MS/MS analysis; format: ADME, Microsome; conditions: 1 h
[31] = Drug metabolism in mouse liver microsomes assessed as N-[8-[(6-chloro-1,2,3,4-tetrahydroacridin-9-yl)amino]octyl]-2-(8-methoxy-2-methyl-6,9-dioxo-1-oxaspiro[4.5]dec-7-en-2-yl)acetamide formation at 5 uM measured up to 60 mins by UPLC-MS/MS analysis; format: ADME, Microsome; conditions: 1 h
[32] = Drug metabolism in mouse liver microsomes assessed as N-[8-[(6-chloro-1,2,3,4-tetrahydroacridin-9-yl)amino]octyl]-5-(2,5-dihydroxy-4-methoxy-phenyl)-3-hydroxy-3-methyl-pentanamide formation at 5 uM measured up to 60 mins by UPLC-MS/MS analysis; format: ADME, Microsome; conditions: 1 h
[33] = Drug metabolism in mouse liver microsomes assessed as 6-chloro-1,2,3,4-tetrahydroacridin-9-amine formation at 5 uM measured up to 60 mins by UPLC-MS/MS analysis; format: ADME, Microsome; conditions: 1 h
[34] = Drug metabolism in rat liver microsomes assessed as N-[8-[(6-chloro-1,2,3,4-tetrahydroacridin-9-yl)amino]octyl]-2-(8-methoxy-2-methyl-6,9-dioxo-1-oxaspiro[4.5]dec-7-en-2-yl)acetamide formation at 5 uM measured up to 60 mins by UPLC-MS/MS analysis; format: ADME, Microsome; conditions: 1 h
[35] = Drug metabolism in rat liver microsomes assessed as N-[8-[(6-chloro-1,2,3,4-tetrahydroacridin-9-yl)amino]octyl]-5-(2,5-dihydroxy-4-methoxy-phenyl)-3-hydroxy-3-methyl-pentanamide formation at 5 uM measured up to 60 mins by UPLC-MS/MS analysis; format: ADME, Microsome; conditions: 1 h
[36] = target: Cholinesterase (Homo sapiens, UniProt P06276)
Chain of Cholinesterase (P06276 whole entry): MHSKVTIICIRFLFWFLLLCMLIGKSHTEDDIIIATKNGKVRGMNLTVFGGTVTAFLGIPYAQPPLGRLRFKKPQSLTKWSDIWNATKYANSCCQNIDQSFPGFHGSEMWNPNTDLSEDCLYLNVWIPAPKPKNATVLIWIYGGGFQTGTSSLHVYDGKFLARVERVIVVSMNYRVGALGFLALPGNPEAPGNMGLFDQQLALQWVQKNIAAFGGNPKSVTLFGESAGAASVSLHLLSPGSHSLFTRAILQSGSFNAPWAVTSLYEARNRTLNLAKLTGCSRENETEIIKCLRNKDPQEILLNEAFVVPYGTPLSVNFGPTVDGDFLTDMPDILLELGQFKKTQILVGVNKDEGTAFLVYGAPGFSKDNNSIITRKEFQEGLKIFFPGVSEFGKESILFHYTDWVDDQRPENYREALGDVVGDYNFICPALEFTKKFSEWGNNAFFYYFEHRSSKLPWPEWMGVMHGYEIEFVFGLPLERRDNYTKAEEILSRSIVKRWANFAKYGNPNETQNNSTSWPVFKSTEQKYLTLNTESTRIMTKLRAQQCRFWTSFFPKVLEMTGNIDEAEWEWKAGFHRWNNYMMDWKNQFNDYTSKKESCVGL
Description: Inhibition of recombinant human BChE using butyrylthiocholine iodide as substrate preincubated for 15 mins followed by substrate addition by Ellman's method

In the case of `COc1cc2c(cc1O)CCC(C)(CC(=O)NCCCCCCCCNc1c3c(nc4cc(Cl)ccc14)CCCC3)O2` (stereo unspecified), the Activity [1] is reported as “Non-Toxic”, the Activity [2] is reported as “Toxic” and the Activity [3] is reported as “Toxic”. The Activity [4] was “Toxic”, the Activity [5] was “Non-Toxic” and the Activity [6] was “inactive”. For the same compound, the Activity [7] was “inactive”, the Activity [8] was “inactive” and the Activity [9] was “inactive”. For the same compound, the Activity [10] was “inactive”, the Activity [11] was “inactive” and the Activity [12] was “Active”. It also gave a remaining at 1 h, 10 µM [13] of 100%, a remaining at 3 h, 10 µM [14] of 100% and a remaining at 6 h, 10 µM [15] of 100%. It also gave a remaining at 0 min, 10 µM [16] of 100%, a remaining at 3 h, 10 µM [17] of 100% and a remaining at 6 h, 10 µM [18] of 100%. The remaining at 0 min, 10 µM [19] was 100%, the remaining at 3 h, 10 µM [20] was 100% and the remaining at 6 h, 10 µM [21] was 98%. The half-life at 5 µM [22] was 12.6 min, the microsomal CLint at 5 µM [23] was 55.2 µL/min/mg and the remaining at 1 h, 5 µM [24] was 55.2%. The microsomal CLint at 5 µM [25] was 13.7 µL/min/mg, the remaining at 1 h, 5 µM [26] was 36.5% and the half-life at 5 µM [27] was 42.4 min. For the same compound, the microsomal CLint at 5 µM [28] was 16.3 µL/min/mg, the Drug metabolism [29] was “Metabolite_Detected” and the Drug metabolism [30] was “Metabolite_Detected”. The Drug metabolism [31] was “Metabolite_Detected”, the Drug metabolism [32] was “Metabolite_Detected” and the Drug metabolism [33] was “Metabolite_Detected”. The Drug metabolism [34] was “Metabolite_Detected”, the Drug metabolism [35] was “Metabolite_Detected” and the IC50 [36] was 170 nM.
